# Tests used:
# [1] = system: E. coli ΔtolC (JW5503); experiment: MIC, broth microdilution (CLSI); assay type: cell-based, Escherichia coli
# Procedure: (§1) II. Materials and Methods for Biological Experiments
# (§2) S. aureus ATCC 29213 and E. coli MG1655 were obtained from the American Type Culture Collection (ATCC). E. coli BW25113 and E. coli JW5503 were obtained from the Keio Collection. AR-bank strains were obtained from the Centers for Disease Control and Prevention and FDA Antibiotic Resistance Isolate Bank.
# (§3) Antimicrobial susceptibility tests
# (§4) Susceptibility testing was performed in biological triplicate, unless noted otherwise, using the micro-dilution broth method as outlined by the Clinical and Laboratory Standards Institute. Bacteria were cultured with cation-adjusted Mueller Hinton broth (Sigma Aldrich, catalogue number: 90922). […]
# (§5) NH3: m/z 391.2 → 171.0. Fabimycin: m/z 405.3 → 145.3. Power analysis was not used to determine the number of replicates. Error bars represent the standard error of the mean of three biological replicates. All compounds evaluated in biological assays were ≥95% pure.
# [2] = system: K. pneumoniae AR-0113; experiment: MIC, broth microdilution (CLSI); assay type: cell-based; conditions: Klebsiella pneumoniae, AR0113; K. pneumoniae AR-0113 clinical isolate
# Procedure: as §1, §2, §3, §4
# (§6) Error bars represent the standard error of the mean of three biological replicates. All compounds evaluated in biological assays were ≥95% pure.
# [3] = system: A. baumannii AR-0313; experiment: MIC, broth microdilution (CLSI); assay type: cell-based; conditions: Acinetobacter baumannii, AR0313; A. baumannii AR-0313 clinical isolate; † = dose-independent trailing growth
# Procedure: as §1, §2, §3, §4, §6
# [4] = system: K. pneumoniae AR-0560; experiment: MIC, broth microdilution (CLSI); assay type: cell-based; conditions: Klebsiella pneumoniae, AR0560; K. pneumoniae AR-0560 clinical isolate
# Procedure: as §1, §2, §3, §4, §5
# [5] = system: A. baumannii AR-0299; experiment: MIC, broth microdilution (CLSI); assay type: cell-based; conditions: Acinetobacter baumannii, AR0299; A. baumannii AR-0299 clinical isolate; † = dose-independent trailing growth
# Procedure: as §1, §2, §3, §4, §5
# [6] = system: K. pneumoniae BAA-2472; experiment: MIC, broth microdilution (CLSI); assay type: cell-based; conditions: Klebsiella pneumoniae, BAA2472
# Procedure: as §1, §2, §3, §4, §5
# [7] = system: E. coli AR-0048; experiment: MIC, broth microdilution (CLSI); assay type: cell-based; conditions: Escherichia coli, AR0048; E. coli AR-0048 clinical isolate
# Procedure: as §1, §2, §3, §4, §5
# [8] = system: K. pneumoniae AR-0066; experiment: MIC, broth microdilution (CLSI); assay type: cell-based; conditions: Klebsiella pneumoniae, AR0066; K. pneumoniae AR-0066 clinical isolate
# Procedure: as §1, §2, §3, §4, §5
# [9] = system: E. coli AR-0085; experiment: MIC, broth microdilution (CLSI); assay type: cell-based; conditions: Escherichia coli, AR0085; E. coli AR-0085 clinical isolate
# Procedure: as §1, §2, §3, §4, §5
# [10] = system: A. baumannii AR-0033; experiment: MIC, broth microdilution (CLSI); assay type: cell-based; conditions: Acinetobacter baumannii, AR0033; A. baumannii AR-0033 clinical isolate; † = dose-independent trailing growth
# Procedure: as §1, §2, §3, §4, §5
# [11] = system: A. baumannii AR-0273; experiment: MIC, broth microdilution (CLSI); assay type: cell-based; conditions: Acinetobacter baumannii, AR0273; A. baumannii AR-0273 clinical isolate
# Procedure: as §1, §2, §3, §4, §5
# [12] = system: S. aureus ATCC 29213; experiment: MIC, broth microdilution (CLSI); assay type: cell-based; conditions: Staphylococcus aureus, ATCC29213; S. aureus 29213
# Procedure: as §1, §2, §3, §4, §5
# [13] = system: E. coli MG1655; experiment: MIC, broth microdilution (CLSI); assay type: cell-based; conditions: Escherichia coli
# Procedure: as §1, §2, §3, §4, §5
# [14] = system: E. coli MG1655; set-up: method as in PMID 31740764; conditions: cited from earlier work
# [15] = biological target: A. baumannii FabI (Acinetobacter baumannii, UniProt D0CAD5); experiment: In vitro FabI enzymatic inhibition assay; assay type: biochemical; conditions: AbFabI; Morrison's quadratic fit; 5 nM enzyme; read-out: Ki app
# Chain of A. baumannii FabI (D0CAD5 entry or part of it): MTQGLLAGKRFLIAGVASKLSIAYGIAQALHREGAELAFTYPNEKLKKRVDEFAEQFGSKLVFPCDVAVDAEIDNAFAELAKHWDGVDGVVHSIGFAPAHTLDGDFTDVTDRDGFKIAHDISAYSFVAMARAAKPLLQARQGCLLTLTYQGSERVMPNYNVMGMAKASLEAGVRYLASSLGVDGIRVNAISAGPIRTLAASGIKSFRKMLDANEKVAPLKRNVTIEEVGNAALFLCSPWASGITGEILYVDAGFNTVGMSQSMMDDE
# Procedure: (§7) supplemented with 100 µg/mL ampicillin at 37°C until OD600 reached 0.6-0.7. The cells were induced with 1mM IPTG and incubated for 20 hours at 18°C and spun down at 8000 rpm for 15 minutes. Cell pellet was resuspended in the lysis buffer (50 mM Tris-HCl pH 8.0, 500 mM Na Cl, 20 mM imidazole, 10% glycerol, 0.5 mM TCEP, protease inhibitor and Lysonase) and passed through microfluidizer followed by centrifugation and filtration to remove cell debris. The clarified lysate was supplemented with 20 mM imidazole and passed over a HisTrap column (Cytiva) pre-equilibrated with the wash buffer (50 mM Tris-HCl pH 8.0, 500 mM NaCl, 20 mM imidazole, 10% glycerol, 0.5 mM TCEP). The column was washed with the wash buffer and eluted over a 20-500 mM imidazole gradient. The appropriate fractions were pooled, and the histidine tag was removed by TEV cleavage. The protein mixture was passed over a HisTrap column to separate the cleaved protein from the uncleaved ones. The cleaved protein was pooled and passed over an S75 size exclusion column (GE LifeSciences) pre-equilibrated with 50 mM Tris-HCl pH 8.0, 500 mM NaCl, 0.5 mM TCEP and 10% glycerol. Fractions containing pure protein were pooled, concentrated at 10 mg/mL and stored at -80°C. […]
# (§8) In vitro FabI enzymatic inhibition assay
# (§9) Recombinant E. coli and A. baummani FabI enzymes were used in a continuous NADH absorbance assay (20 µL in 384w format). Compounds and the Crotonyl-CoA substrate (Sigma–Aldrich 28007) were dispensed into a plate (GeinerBio-One 781101). The reaction was initiated by the addition of a reaction master mix solution containing enzyme and NADH (Sigma–Aldrich N8129) suspended in reaction buffer (50 mM HEPES pH 7.4, 150 mM NaCl, 1 mM EDTA, 0.01 mg/mL BSA, 0.01% Tween). Final concentrations were 5 nM enzyme, 150 μM Crotonyl-CoA, 380 μM NADH, 0.05% DMSO in 1x reaction buffer. After shaking for 5 seconds the reaction was monitored at NADH absorbance (340nm, 25°C) using a Molecular Devices SpectraMax M5 microplate reader. The linear portion of the progress curve was fit using plate-reader software. Percentage activity was calculated relative to DMSO only and no-substrate controls in each plate and the data were fit to Morrison’s quadratic using Graphpad Prism 9.3 to obtain apparent inhibition constant (Ki app) values. […]
# (§10) 480 Real-Time PCR System as a function of a temperature ramp (25-95°C; 0.1°/s) and the Tm was calculated using the […]
# [16] = biological target: T1, E. coli FabI (Escherichia coli, UniProt P0AEK4); experiment: In vitro FabI enzymatic inhibition assay; assay type: biochemical; conditions: EcFabI; Morrison's quadratic fit; 5 nM enzyme; read-out: Ki app
# T1 construct: His(6) with TEV site (cleaved yes); made in house; host or cells: E. coli BL21(DE3)
# T1 sequence (P0AEK4 whole entry): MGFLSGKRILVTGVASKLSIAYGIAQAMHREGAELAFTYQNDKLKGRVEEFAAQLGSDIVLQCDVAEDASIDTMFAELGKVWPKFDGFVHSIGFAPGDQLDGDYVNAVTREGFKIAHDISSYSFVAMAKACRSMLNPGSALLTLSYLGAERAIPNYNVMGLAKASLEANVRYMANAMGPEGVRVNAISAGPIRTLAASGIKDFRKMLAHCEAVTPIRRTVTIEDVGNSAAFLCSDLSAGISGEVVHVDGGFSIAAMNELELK
# Procedure: as §7, §8, §9, §10
# [17] = system: E. coli MG1655; experiment: Serial passaging; assay type: cell-based, Escherichia coli; conditions: E. coli MG1655, subinhibitory concentration, 21 days
# Procedure: Serial passaging procedure was done as reported in literature.5 Briefly, E. coli MG1655 cells were grown in 0.6 mL of MH media containing fabimycin and ciprofloxacin (control) at different concentrations. Cells were added to the respective compounds at 0.25X, 0.5X, 1X, 2X, and 4X to start. At 22-24 hours the cultures were checked for growth. […]
# compound at varying concentrations based off of the MIC. This serial passaging was repeated for 21 days. […]
# All cells were cultured […]
# at 37 °C under a 5% CO2 environment. Cell lines were authenticated by a commercial vendor and inspected visually in house. Cell lines were not tested for Mycoplasma contamination. The media was prepared by the University of Illinois School of Chemical Sciences Cell Media Facility.
# H. sapiens HFF-1, A549, and HepG2 cells were seeded (3,000-6,000 cells/well) in a 96-well plate (Greiner Bio-One;
# [18] = system: K. pneumoniae clinical isolates (n=100); experiment: MIC50/MIC90, clinical isolate panel; assay type: cell-based; conditions: Klebsiella pneumoniae; K. pneumoniae (n=100) clinical isolates
# Source text: Figure 4 Antimicrobial activity of fabimycin against clinical isolates. (A) The susceptibility of clinical isolates (Gram-negative species and S. aureus) to fabimycin, Debio-1452-NH3, and Debio-1452. MICs performed in biological triplicate. (B) Further exploration of the breadth of fabimycin’s antibacterial activity against diverse clinical isolate panels of K. pneumoniae and A. baumannii, as compared to levofloxacin. MICs performed in biological duplicate.
# as §1, §2, §3, §4, §6
# [19] = system: A. baumannii clinical isolates (n=100); experiment: MIC50/MIC90, clinical isolate panel; assay type: cell-based; conditions: Acinetobacter baumannii; A. baumannii (n=100) clinical isolates
Compound,MIC ([1]; Escherichia coli),MIC [2],MIC [3],MIC [4],MIC [5],MIC [6],MIC [7],MIC [8],MIC [9],MIC [10],MIC [11],MIC [12],MIC [13],other results
Cc1c(CN(C)C(=O)/C=C/c2cnc3c(c2)CCC(CN)C(=O)N3)oc2ccccc12 (racemic) [(±)-8],0.125 µg/mL,32 µg/mL,> 32 µg/mL,16 µg/mL,32 µg/mL,32 µg/mL,16 µg/mL,32 µg/mL,8 µg/mL,16 µg/mL,32 µg/mL,0.031 µg/mL,8 µg/mL,
Cc1c(CN(C)C(=O)/C=C/c2cnc3c(c2)CCC(CCN)C(=O)N3)oc2ccccc12 (racemic) [(±)-9],0.125 µg/mL,,,,,,,,,,,0.062 µg/mL,32 µg/mL,
"Cc1c(CN(C)C(=O)/C=C/c2cnc3c(c2)CCC(=O)N3)oc2ccccc12 [Debio-1452, reference compound]",,> 32 µg/mL,> 32 µg/mL,> 32 µg/mL,> 32 µg/mL,> 32 µg/mL,> 32 µg/mL,> 32 µg/mL,> 32 µg/mL,> 32 µg/mL,> 32 µg/mL,,,"accumulation in Gram-negative bacteria (class in Figure 1A) [14]: Non-accumulator; MIC ([1]; E. coli ΔtolC = JW5503, efflux-deficient): 0.062 µg/mL; Ki [15]: 0.431 ± 0.085 µM; Ki [16]: 0.097 ± 0.019 µM"
"O=C(O)c1cn(C2CC2)c2cc(N3CCNCC3)c(F)cc2c1=O [ciprofloxacin, reference compound]",,,,,,,,,,,,,,increase in the MIC after serial passaging [17]: 128 fold
Cc1c(CN(C)C(=O)/C=C/c2cnc3c(c2)CC2(CNC2)C(=O)N3)oc2ccccc12 [compound 2],0.031 µg/mL,16 µg/mL,16 µg/mL,16 µg/mL,16 µg/mL,8 µg/mL,8 µg/mL,8 µg/mL,4 µg/mL,8 µg/mL,8 µg/mL,0.016 µg/mL,4 µg/mL,
"C[C@H]1COc2c(N3CCN(C)CC3)c(F)cc3c(=O)c(C(=O)O)cn1c23 [levofloxacin, reference compound]",,,,,,,,,,,,,,MIC50 [18]: 0.5 µg/mL; MIC90 [18]: 32 µg/mL; MIC50 [19]: 4 µg/mL; MIC90 [19]: 32 µg/mL

# — paper PMC9413440, “An Iterative Approach Guides Discovery of the FabI Inhibitor Fabimycin, a Late-Stage Antibiotic Candidate with In Vivo Efficacy against Drug-Resistant Gram-Negative Infections” (ACS Central Science, 2022)
